{"source": "patent US20080311231A1", "about": "“Broad Spectrum Non-Traditional Preservative System” (priority 2005, published 2008)", "format_in_all_cases": "cell-based", "key": {"C. albicans [1]": {"tested_on": "C. albicans", "experiment": "Method C, oil/water base incubated at 30° C. (Examples 7 and 8)", "settings": "10^7 cfu/gm, 24 hours", "description": "Evaluation of the effect of various preservative compositions incorporated in an oil/water base against C. albicans (yeast) incubated at 30° C. Yeast and fungi grow optimally at 30° C. and therefore the efficacy of the preservative was evaluated at this temperature.\nMethod of evaluation: Method C: Same as Method B except that incubation was at 30° C. and subculturing is done on Sabouraud agar.\nThe following preservatives at 1.0% and 0.5% concentrations were added to the cream. C. albicais at 10^7 cfu/gm base was added to the base and incubated at 30° C. for 24 hours.\nEfficacy of preservatives incorporated in the oil/water base and inoculated with the yeast C. albicans and fungus Aspergillus niger.\nThe cream base and the cream containing the preservatives were inoculated with 10^7 cfu of C. albicans/gm and 105 cfu of Aspergillus niger/gm; and incubated at 30° C. for 24 hours and 48 hours.\nMethod of Evaluation: Testing was done using Method C."}, "P. aeruginosa [2]": {"tested_on": "P. aeruginosa", "experiment": "Efficacy of preservatives against higher concentrations of P. aeruginosa (Example 4)", "settings": "10^7 cfu per gm cream, 37° C.", "description": "(§1) Method of evaluation—Method A: 500 μl or 250 μl of each of the following preservatives was added to 49.5/49.75 gm of the cream base to obtain the desired concentrations for testing as in Table 3, and mixed well. 1.0 gm of this base+preservative formulation was dispensed into several culture tubes and each tube was inoculated with 10 μl of culture containing 10^5 cfu (colony forming units) of test organism. The tubes were incubated at room temperature. After 24 hours the tubes were removed and 9 ml of drug inactivating medium was added and mixed. After making another dilution (1:10) with drug inactivating medium, a 0.5 ml aliquot was subcultured on to a TSA plate. Colony counts were measured after 24 hours incubation at 37° C.\n(§2) Evaluation of the synergistic activity of octanediol and AHA combinations against higher concentrations of P. aeruginosa. Since 0.5% Octanediol kills 100% of P. aeruginosa at a concentration of 10^5 cfu/gm, the test was repeated with this organism at 10^7 cfu/gm.\nMethod of evaluation: Same as described in Method A except a higher inoculum was used. A 100 μl inoculum containing 10^7 cfu of P. aeruginosa was added to each 1 gm of cream and incubated at 37° C."}, "P. aeruginosa [3]": {"tested_on": "P. aeruginosa", "experiment": "Preservative activity in cream, Method A inoculum (text of Example 4)", "settings": "0.5% Octanediol; organism at 10^5 cfu/gm (so in the source)", "description": "as §1, §2"}, "C. albicans [4]": {"tested_on": "C. albicans", "experiment": "Preservative activity in cream base, Method A (Example 3)", "settings": "10^5 cfu inoculum, room temperature, 24 hours", "description": "as §1\n(§3) Result: Preservative activity of various creams utilizing a concentration of test organism of 10^5 cfu/gm and incubation at room temperature is shown in Table 4."}, "E. coli [5]": {"tested_on": "E. coli", "experiment": "Preservative activity in cream base, Method A (Example 3)", "settings": "10^5 cfu inoculum, room temperature, 24 hours", "description": "as §1, §3"}, "S. aureus [6]": {"tested_on": "S. aureus", "experiment": "Preservative activity in cream base, Method A (Example 3)", "settings": "10^5 cfu inoculum, room temperature, 24 hours", "description": "as §1, §3"}, "C. albicans [7]": {"tested_on": "C. albicans", "experiment": "Method B, Symrise oil/water cream base (Examples 5 and 6)", "settings": "for Colony counts (CFU/gm) C. albicans: 0.2% w/w in Symrise oil/water cream, 10^7 CFU/gm", "description": "Activity of lower concentration of Symdiol™ (0.2% w/w) with organic acids was measured. The cream base used in this study was supplied by Symrise Corporation. This base is an oil/water base. […] Method of evaluation: Method B was used for this test. Method B: Same as described in Method A except a higher inoculum was used. […] Microbial growth measured as CFU was counted after 24 hour incubation at 37° C. The cream base used in this study was supplied by Symrise Corporation. This base is an oil/water base. […] Method of evaluation: Method B was used for this test with C. albicans as test organism."}, "E. coli [8]": {"tested_on": "E. coli", "experiment": "Method B, Symrise oil/water cream base (Example 5)", "settings": "0.2% w/w in Symrise oil/water cream; 10^7 CFU/gm; 37° C., 24 hour", "description": "(§4) Activity of lower concentration of Symdiol™ (0.2% w/w) with organic acids was measured. The cream base used in this study was supplied by Symrise Corporation. This base is an oil/water base.\n(§5) Method of evaluation: Method B was used for this test. Method B: Same as described in Method A except a higher inoculum was used. A 100 μL inoculum containing 10^7 CFU of test organism was added to each 1 gm of cream and incubated at 37° C. Microbial growth measured as CFU was counted after 24 hour incubation at 37° C."}, "P. aeruginosa [9]": {"tested_on": "P. aeruginosa", "experiment": "Method B, Symrise oil/water cream base (Example 5)", "settings": "0.2% w/w in Symrise oil/water cream; 10^7 CFU/gm; 37° C., 24 hour", "description": "as §4, §5"}, "S. aureus [10]": {"tested_on": "S. aureus", "experiment": "Method B, Symrise oil/water cream base (Example 5)", "settings": "0.2% w/w in Symrise oil/water cream; 10^7 CFU/gm; 37° C., 24 hour", "description": "as §4, §5"}, "[11]": {"settings": "printed as 20% (single ingredient)"}}}
{"smiles": "CCCCCCC(O)CO", "note": "(stereo not drawn)", "values": [{"measurement": "C. albicans (CFU/gm cream)", "setting": "C. albicans [1]; printed as 30% (single ingredient)", "result": "1.4 × 10^5 CFU/gm cream"}, {"measurement": "C. albicans (CFU/gm cream)", "setting": "C. albicans [1]; printed as 50% (single ingredient)", "result": 0, "unit": "CFU/gm cream"}, {"measurement": "Colony counts (CFU/gm) P. aeruginosa", "setting": "P. aeruginosa [2]; 0.5% w/w in cream", "result": "1.6 × 10^3 CFU/gm"}, {"measurement": "kills P. aeruginosa", "setting": "P. aeruginosa [3]", "result": 100, "unit": "%"}, {"measurement": "Colony counts (CFU/gm) C. albicans", "setting": "C. albicans [4]; 0.3% w/w in cream", "result": "2.0 × 10^5 CFU/gm"}, {"measurement": "Colony counts (CFU/gm) C. albicans", "setting": "C. albicans [4]; 0.5% w/w in cream", "result": "5.2 × 10^2 CFU/gm"}, {"measurement": "Colony counts (CFU)/gm E. coli", "setting": "E. coli [5]; 0.3% w/w in cream", "result": "5.4 × 10^4 CFU/gm"}, {"measurement": "Colony counts (CFU)/gm E. coli", "setting": "E. coli [5]; 0.5% w/w in cream", "result": 0, "unit": "CFU/gm"}, {"measurement": "Colony counts (CFU)/gm S. aureus", "setting": "S. aureus [6]; 0.3% w/w in cream", "result": "4.0 × 10^4 CFU/gm"}, {"measurement": "Colony counts (CFU)/gm S. aureus", "setting": "S. aureus [6]; 0.5% w/w in cream", "result": "1.5 × 10^3 CFU/gm"}, {"measurement": "Colony counts (CFU/gm) C. albicans", "setting": "C. albicans [7]; Table 7, Method B", "result": "1.0 × 10^5 CFU/gm"}]}
{"smiles": "O=C(O)CC(O)(CC(=O)O)C(=O)O", "note": "[Citric acid]", "values": [{"measurement": "C. albicans (CFU/gm cream)", "setting": "C. albicans [1]; [11]", "result": "2.5 × 10^6 CFU/gm cream"}, {"measurement": "Colony counts (CFU/gm) P. aeruginosa", "setting": "P. aeruginosa [2]; 0.2% w/w in cream", "result": "2.5 × 10^6 CFU/gm"}, {"measurement": "Colony counts (CFU/gm) C. albicans", "setting": "C. albicans [4]; 0.2% w/w in cream", "result": "1.0 × 10^5 CFU/gm"}, {"measurement": "Colony counts (CFU)/gm E. coli", "setting": "E. coli [5]; 0.2% w/w in cream", "result": "7.3 × 10^4 CFU/gm"}, {"measurement": "Colony counts (CFU)/gm S. aureus", "setting": "S. aureus [6]; 0.2% w/w in cream", "result": "5.0 × 10^4 CFU/gm"}, {"measurement": "Colony counts (CFU/gm) C. albicans", "setting": "C. albicans [7]; 37° C., 24 hour", "result": "2.0 × 10^6 CFU/gm"}, {"measurement": "Colony counts (CFU/gm) C. albicans", "setting": "C. albicans [7]; Table 7, Method B", "result": "2.0 × 10^6 CFU/gm"}, {"measurement": "activity of the combination against C. albicans in words (conclusion of Example 6)", "setting": "C. albicans [7]; with a lower concentration of octanediol (0.2% w/w)", "result": "enhanced activity"}, {"measurement": "Colony counts (CFU)/gm E. coli", "setting": "E. coli [8]", "result": "2.0 × 10^6 CFU/gm"}, {"measurement": "Colony counts (CFU/gm) P. aeruginosa", "setting": "P. aeruginosa [9]", "result": "1.0 × 10^6 CFU/gm"}, {"measurement": "Colony counts (CFU)/gm S. aureus", "setting": "S. aureus [10]", "result": "2.0 × 10^4 CFU/gm"}]}
{"smiles": "CC(O)C(=O)O", "note": "(stereo not drawn) [Lactic acid]", "values": [{"measurement": "C. albicans (CFU/gm cream)", "setting": "C. albicans [1]; 0.12% (single ingredient)", "result": "4.2 × 10^6 CFU/gm cream"}, {"measurement": "C. albicans (CFU/gm cream)", "setting": "C. albicans [1]; [11]", "result": "5 × 10^6 CFU/gm cream"}, {"measurement": "Colony counts (CFU/gm) P. aeruginosa", "setting": "P. aeruginosa [2]; 0.2% w/w in cream", "result": "2.0 × 10^6 CFU/gm"}, {"measurement": "Colony counts (CFU/gm) C. albicans", "setting": "C. albicans [4]; 0.2% w/w in cream", "result": "1.5 × 10^4 CFU/gm"}, {"measurement": "Colony counts (CFU)/gm E. coli", "setting": "E. coli [5]; 0.2% w/w in cream", "result": "2.3 × 10^4 CFU/gm"}, {"measurement": "Colony counts (CFU)/gm S. aureus", "setting": "S. aureus [6]; 0.2% w/w in cream", "result": "3.0 × 10^3 CFU/gm"}, {"measurement": "Colony counts (CFU/gm) C. albicans", "setting": "C. albicans [7]; 37° C., 24 hour", "result": "2.0 × 10^6 CFU/gm"}, {"measurement": "Colony counts (CFU/gm) C. albicans", "setting": "C. albicans [7]; Table 7, Method B", "result": "2.0 × 10^6 CFU/gm"}, {"measurement": "Colony counts (CFU)/gm E. coli", "setting": "E. coli [8]", "result": "1.2 × 10^6 CFU/gm"}, {"measurement": "Colony counts (CFU/gm) P. aeruginosa", "setting": "P. aeruginosa [9]", "result": "2.0 × 10^6 CFU/gm"}, {"measurement": "Colony counts (CFU)/gm S. aureus", "setting": "S. aureus [10]", "result": "6.0 × 10^4 CFU/gm"}]}
